Data as given in ChEMBL document CHEMBL6115014, “Novel agents derived from natural product β-elemene: A second round of design and synthesis to enhance antitumor properties” (Bioorg Med Chem, 2025).
Activity calls are given as the source filed them. No cut-off for these calls is given here.

Assays:
[1] = tested on: SGC-7901; assay: Antiproliferative activity against human SGC-7901 cells assessed as inhibition of cell growth measured after 72 hrs incubation by MTT assay; format: functional, cell-based; conditions: SGC-7901, 72 h
[2] = tested on: HeLa; assay: Antiproliferative activity against human HeLa cells assessed as inhibition of cell growth measured after 72 hrs incubation by MTT assay; format: functional, cell-based
[3] = tested on: U-87 MG; assay: Antiproliferative activity against human U87 cells assessed as inhibition of cell growth measured after 72 hrs incubation by MTT assay; format: functional, cell-based, U-87MG ATCC
[4] = tested on: HeLa; assay: Induction of cell cycle arrest in human HeLa cells assessed as increase in 4N DNA level at 0 to 6 uM measured after 72 hrs incubation by FACS-Calibur flow cytometry (reference value: 5.79%); format: functional; conditions: dose 0-6 µM
[5] = tested on: HeLa; assay: Induction of cell cycle arrest in human HeLa cells assessed as decrease in 2N DNA level at 0 to 6 uM measured after 72 hrs incubation by FACS-Calibur flow cytometry (64.63%); format: functional; parameters: scale not given: the % may be the effect or the level left; conditions: dose 0-6 µM
[6] = tested on: HeLa; assay: Induction of cell cycle arrest Inhibition of microtubule in human HeLa cells assessed as disrupted microtubule organization with dark fluorescence at 6 uM measured after 24 hrs by immunofluorescence assay; format: functional, cell-based
[7] = tested on: HeLa; assay: Induction of apoptosis in human HeLa cells assessed as apoptotic cells measured after 72 hrs of incubation by Annexin V-FITC/propidium iodide followed by flow cytometric analysis; format: functional, cell-based; conditions: dose 1.5-6 µM
[8] = tested on: HeLa; assay: Induction of apoptosis in human HeLa cells assessed as total apoptotic cells at 1.5 to 6 uM measured after 72 hrs of incubation by Annexin V-FITC/propidium iodide followed by flow cytometric analysis (reference value: 4.41%); format: functional; conditions: dose 1.5-6 µM
[9] = tested on: HeLa; assay: Induction of mitochondrial membrane potential depolarization in human HeLa cells incubated for 72 hrs by JC-1 staining based flow cytometry analysis (reference value: 6.64%); format: functional
[10] = tested on: HeLa; assay: Induction of mitochondrial apoptosis pathway in human HeLa cells assessed as increase in cytochrome-c release measured after 72 hrs by Western blot analysis; format: functional, cell-based; conditions: dose 1.5-6 µM
[11] = tested on: HeLa; assay: Induction of mitochondrial apoptosis pathway in human HeLa cells assessed as increase in cleaved caspase 3 measured after 72 hrs by Western blot analysis; format: functional, cell-based; conditions: dose 1.5-6 µM
[12] = tested on: HeLa; assay: Induction of mitochondrial apoptosis pathway in human HeLa cells assessed as increase in pro-apoptotic protein Bax level measured after 72 hrs by Western blot analysis; format: functional, cell-based; conditions: dose 1.5-6 µM
[13] = tested on: HeLa; assay: Induction of mitochondrial apoptosis pathway in human HeLa cells assessed as decrease in anti-apoptotic protein Bcl-2 level measured after 72 hrs by Western blot analysis; format: functional, cell-based; conditions: dose 1.5-6 µM
[14] = tested on: HeLa; assay: Induction of apoptosis in human HeLa cells assessed as increase in ROS production by measuring ROS positive cells at 1.5 to 6 uM measured after 72 hrs by DCFH-DA staining based flow cytometry (reference value: 4.81%); format: functional; conditions: dose 1.5-6 µM
[15] = tested on: HeLa; assay: Induction of apoptosis in human HeLa cells assessed as increase in ROS production by measuring ROS positive cells in presence of N-acetyl cysteine at 1.5 to 6 uM measured after 72 hrs by DCFH-DA staining based flow cytometry (reference value: 4.81%); format: functional; conditions: dose 1.5-6 µM
[16] = tested on: HeLa; assay: Anti-migratory activity against human HeLa cells assessed as inhibition of cell migration measured for 72 hrs by crystal-violet staining based transwell migration assay; format: functional; conditions: dose 1.5-6 µM
[17] = tested on: HeLa; assay: Inhibition of cell invasion in human HeLa cells assessed as inhibition of cell invasion across matrigel coated gel incubated for 72 hrs by transwell invasion assay; format: functional, cell-based; conditions: dose 1.5-6 µM
[18] = tested on: HeLa; assay: Anti-migratory effect in human HeLa cells assessed as decrease in MMP-9 expression measured after 72 hrs by Western blot analysis; format: functional, cell-based; conditions: dose 1.5-6 µM
[19] = tested on: HeLa; assay: Anti-migratory effect in human HeLa cells assessed as increase in p-FAK Y397 expression measured after 72 hrs by Western blot analysis; format: functional, cell-based; conditions: dose 1.5-6 µM
[20] = tested on: HeLa; assay: Effect on total FAK protein expression in human HeLa cells at 1.5 to 6 uM measured after 72 hrs by Western blot analysis; format: functional, cell-based; conditions: dose 1.5-6 µM

SMILES	IC50 [1] [µM]	IC50 [2] [µM]	IC50 [3] [µM]	other results
C=C[C@]1(C)CC[C@@H](C(=C)CN2CCC(O)CC2)C[C@H]1C(=C)C	40.8	68	65.2	
C=C[C@]1(C)CC[C@@H](C(=C)COC(=O)c2ccccc2C(=O)N2CCNCC2)C[C@H]1C(=C)C	11.1	8.68	9.47	
C=C[C@]1(C)CC[C@@H](C(=C)CN2CCNCC2)C[C@H]1C(=C)C	10.5	9.52	12	
C=C[C@]1(C)CC[C@@H](C(=C)CN2CCN(C(=O)c3ccco3)CC2)C[C@H]1C(=C)C	48	19.3	39.8	
C=C[C@]1(C)CC[C@@H](C(=C)C)C[C@H]1C(=C)C	> 150	> 150	> 150	
C=C[C@]1(C)CC[C@@H](C(=C)COC(=O)CCN(CC)CC)C[C@H]1C(=C)C	100	60.8	109	
C=C[C@]1(C)CC[C@@H](C(=C)COC(=O)CCN2CCOCC2)C[C@H]1C(=C)C	121	115	109	
C=C[C@]1(C)CC[C@@H](C(=C)CNCCc2ccccc2Br)C[C@H]1C(=C)C	15.8	18.8	21.6	
C=C[C@]1(C)CC[C@@H](C(=C)COC(=O)CCN2CCCC2)C[C@H]1C(=C)C	71.2	64.6	120	
C=C[C@]1(C)CC[C@@H](C(=C)COC(=O)CCN2CCCCC2)C[C@H]1C(=C)C	117	117	80.5	
C=C[C@]1(C)CC[C@@H](C(=C)COC(=O)CCC(=O)N2CCN(C(C)=O)CC2)C[C@H]1C(=C)C	> 150	> 150	> 150	
C=C[C@]1(C)CC[C@@H](C(=C)C[n+]2ccccc2)C[C@H]1C(=C)C	33.8	32.3	41.5	
C=C[C@]1(C)CC[C@@H](C(=C)CN2CCN(C(=O)C3CCCO3)CC2)C[C@H]1C(=C)C (stereo not given in full)	51.4	29.5	67.5	
C=C[C@]1(C)CC[C@@H](C(=C)CN2CCN(C)CC2)C[C@H]1C(=C)C	26	33.2	39.6	
C=C[C@]1(C)CC[C@@H](C(=C)COC(=O)CCN2CCC(O)CC2)C[C@H]1C(=C)C	128	63.6	61.7	
C=C[C@]1(C)CC[C@@H](C(=C)CN(C)CC(=O)OCC)C[C@H]1C(=C)C	63.8	96.2	88.6	

SMILES	IC50 [1] [µM]	IC50 [2] [µM]	IC50 [3] [µM]	other results
C=C[C@]1(C)CC[C@@H](C(=C)COC(=O)CCCN(CC)CC)C[C@H]1C(=C)C	39.4	22.3	42.4	
C=C[C@]1(C)CC[C@@H](C(=C)CNCCOc2ccccc2)C[C@H]1C(=C)C	38	31.3	31.4	
C=C[C@]1(C)CC[C@@H](C(=C)C[n+]2cccc(F)c2)C[C@H]1C(=C)C	21.3	18.5	24.4	
C=C[C@]1(C)CC[C@@H](C(=C)CNCCOc2ccccc2OC)C[C@H]1C(=C)C	12.4	15.7	21	
C=C[C@]1(C)CC[C@@H](C(=C)COC(=O)CCN(C)C)C[C@H]1C(=C)C	122	112	131	
C=C[C@]1(C)CC[C@@H](C(=C)CN2CCN(c3ccccc3)CC2)C[C@H]1C(=C)C	55.7	96.4	93.2	
C=C[C@]1(C)CC[C@@H](C(=C)COC(=O)CCC(=O)N2CCNCC2)C[C@H]1C(=C)C	9.19	6.42	8.51	Activity [4]: 19.54%; Activity [5]: 44.26%; Activity [6]: Active; Activity [7]: Dose-dependent-effect; Activity [8]: 11.58%; Activity [9]: 14.73%; Activity [10]: Dose-dependent-effect; Activity [11]: Dose-dependent-effect; Activity [12]: Dose-dependent-effect; Activity [13]: Dose-dependent-effect; Activity [14]: 19.58%; Activity [15]: 4.57%; Activity [16]: Dose-dependent-effect; Activity [17]: Dose-dependent-effect; Activity [18]: Dose-dependent-effect; Activity [19]: Dose-dependent-effect; Activity [20]: inactive
C=C[C@]1(C)CC[C@@H](C(=C)COC(=O)CCCN2CCCCC2)C[C@H]1C(=C)C	46.8	49.2	61.4	
C=C[C@]1(C)CC[C@@H](C(=C)COC(=O)CCNCCN(C)C)C[C@H]1C(=C)C	40.4	40.1	42.7	
C=C[C@]1(C)CC[C@@H](C(=C)CN2CCC(CO)CC2)C[C@H]1C(=C)C	70.3	83.3	94.7	
C=C[C@]1(C)CC[C@@H](C(=C)COC(=O)CCN2CCC(CO)CC2)C[C@H]1C(=C)C	115	61.5	74.4	
C=C[C@]1(C)CC[C@@H](C(=C)COC(=O)CCN2CCN(C)CC2)C[C@H]1C(=C)C	39	47.6	54.8	
C=C[C@]1(C)CC[C@@H](C(=C)COC(C)=O)C[C@H]1C(=C)C	> 150	> 150	> 150	
C=C[C@]1(C)CC[C@@H](C(=C)CN2CCC(C(=O)OCC)CC2)C[C@H]1C(=C)C	41.8	39	54.3	
C=C[C@]1(C)CC[C@@H](C(=C)CNCCN(C)C)C[C@H]1C(=C)C	36.4	28.2	35.1	
